One data set deals with HCV. The data set is described as follows: microbe, parasite or virus in culture. The format is cell-based. As to conditions: Hepatitis C virus, read-out: antiviral activity EC50.
For another data set, the system named is HCVTCP. The data set is described as follows: Preincubation experiment in the context of HCV TCP infection. The format is cell-based, Hepatitis C virus. As to conditions: HCVTCP system, FIG. 3.
For data set [1], the system named is lipoprotein secretion (ApoB/E), albumin. Kind of data set: Secretion of lipoproteins (ApoB/E) or albumin. It is filed as cell-based. The settings on record: FIG. 6. The text has this: (§1) Moreover, an influence of the compound on the steps leading to assembly and release of infectious HCV particles has been shown. Total production of infectious virus particles was reduced about 3-fold (FIG. 5c). […] However, this was not caused by an influence of the drug on lipoprotein secretion (ApoB/E, FIG. 6), on which HCV secretion strongly depends, nor a general influence on the secretory capacity of the cell as shown for albumin (FIG. 6).

Data set [2] relates to retroviral particles pseudotyped with the glycoproteins of either HCV, VSV or MLV.
In the next data set the test system is HCV RNA replication. The data set is described as follows: Subgenomic HCV replicon assay (influence on replication). The settings on record: subgenomic HCV replicon system, at non-toxic concentrations, FIG. 2. It is filed as cell-based, Hepatitis C virus. The protocol:
Haprolid has been identified as a potent inhibitor of HCV. Experiments confirmed its antiviral activity at nanomolar concentrations (EC50<6 nM) with toxicity in low micromolar ranges (TC50˜0.1 μM) (FIG. 1). […] Employing HCVTCP, influences on HCV RNA replication and virus entry are quantified.
On the technique in general: A replicon is a self-replicating genome or part of one, used to study replication in cells.

The subject of a further data set is infectious HCV particles. Kind of data set: Influence on assembly and/or release of infectious HCV particles. The format is cell-based, Hepatitis C virus.
Text: as §1
FIGS. 5a-c show the influence on assembly and/or release.

Data set [3] deals with Huh7-Lunet-hCD81-Gluc cells. The data set is described as follows: Cell viability by G-Luc activity in the whole life cycle assay. The settings on record: FIG. 1.

Consider one compound from US20140256618A1, “Haprolid and Derivatives Thereof as Inhibitors of HCV” (Twincore Zentrum Fuer Experimentelle und Klinische …, priority 2011, published 2014).

As usually defined, the EC50 is the concentration that produces a half-maximal response. Regarding `COC(C)CCCC1CC/C(C)=C\CC(=O)NC(Cc2ccccc2)C(=O)N(C)CC(=O)N(C)C(CC(C)C)C(=O)N2CCCC2C(=O)O1` (stereo not drawn) [Haprolid], in the data set with HCV, the EC50 was under 6 nM. Besides, the “effect of preincubation of cells or of virus compared with addition of compound during infection” value with HCVTCP was “only preincubation of the cells, but not of the virus resulted in a comparable effect”. In addition, in data set [1], the “influence on secretion of albumin” value was “no influence” and the “influence on secretion of lipoproteins (ApoB/E)” value is given as “no influence”. Also, in data set [2], the “decrease of infectivity of pseudotyped retroviral particles” value is given as 100-1000 fold. Besides, the “reduction of HCV RNA replication” value in the data set on HCV RNA replication was 5 fold. In addition, the “reduction of intracellular virus titer” value in the data set on infectious HCV particles (FIG. 5a) is recorded as 100 fold. In addition, the “reduction of total production of infectious virus particles” value in the data set with infectious HCV particles (FIG. 5c) is “about 3 fold”. Besides, the “toxicity TC50” value in data set [3] is about 0.1 µM.
